Data set [1] has as its system A2780 (cisplatin sensitive) ovarian cancer cell line. The data set can be described thus: MTT cytotoxicity assay, A2780 ovarian cancer cells. The class given is cell-based, human. The conditions noted are these: for IC50: 72 h; for in vitro cytotoxic activity in the absence of platinum(II): A2780 and A2780cis cell lines. From the text: (§1) In addition, neither the 4-aminophenanthridine precursors nor the proligands L1 or L2 themselves are effective in the absence of platinum(II). As noted above, intercalation enhances covalent binding and ultimately boosts the number of complex-DNA adducts observed for phenanthriplatin, but only when these two processes are simultaneous (30). Phenanthridines in general are anticipated to interact with DNA via an intercalation mechanism, similar to the mechanism of operation of the DNA stain ethidium bromide, of which phenanthridine forms the molecular core (19). […] The differing profile compared to cisplatin (i.e., higher in vitro efficacy and lower cross-resistance) implies a different mechanism of operation from cisplatin, which, considering to the planar structure of 1 and 2 compared to phenanthriplatin (10) likely involves some degree of intercalation. The higher efficacy for 2 (R═CF3) vs 1 (R=tBu) highlights the opportunity to fine-tune biological activity via ligand backbone substitution.
(§2) In addition, neither the phenanthridinyl amines (2-R) nor the ligand itself (L2) are effective in the absence of platinum(II). While not wishing to be bound or limited to a particular theory or hypothesis, it is believed that substituted phenanthridines interact with DNA via an intercalation mechanism, similar to the mechanism of operation of the DNA stain ethidium bromide (19). […] The differing profile compared to cisplatin (i.e., higher in vitro efficacy and lower cross-resistance) implies a different mechanism of operation from cisplatin, which, considering to the planar structure of NNOPt compared to phenanthriplatin (10) likely involves some degree of intercalation. The higher efficacy for 2 (R═CF3) vs 1 (R=tBu) highlights the opportunity to fine-tune biological activity via ligand backbone substitution.
(§3) Cell line: A2780 (ovarian cells), A2780cis (ovarian cells, drug resistant)
(§4) RPMI medium: 10% FBS, 1% PS, 89% RPMI 1×, with L-glutamine
(§5) MTT (5 mg/MI Thiazolyl Blue tetrazolium bromide in PBS)
(§6) A volume of 100 μL of RPMI medium (10% FBS, 1% PS, 89% RPMI 1×, with L-glutamine) containing 2000 cells was seeded in each well of a 96-well microplate, and incubated for 24 h at 37° C. under 5% CO2. After 24 h, a volume of 50 μL of media containing the new compounds of different concentrations was added to the well. The drug-treated cells were incubated for 72 h at 37° C. with 5% CO2. A volume of 30 μL media containing MTT was added into each well, and incubated for 2-4 h at 37° C. with 5% CO2. MTT would be reduced to formazan in living cells.
(§7) Following this, the media were removed carefully by aspiration and 200 μL DMSO was added into each well. The DMSO is used to dissolve the insoluble formazan into a purple solution. The 96-well microplate with DMSO was then shaken for 10 min at room temperature. Final results were obtained by using a microplate reader to examine the absorbance at 562 nm. Analysis of the data was carried out using Origin™.
(§8) A2780 and A2780cis cell lines were cultured in RPM11640 with L-glutamine supplemented with 10% FBS and 1% PS. SKOV-3, MDA-MB-231, A549, and HEK293 cell line were cultured in DMEM 1 g/L glucose, with L-glutamine & sodium pyruvate supplemented with 10% FBS and 1% PS. MET5A cell line was cultured in M199 supplemented with 10% FBS, 1% PS, insulin, 0.1% Trace Elements B, […] Hydrocortisone, and 4 ng/mL EGF. All cell lines were incubated at 37° C. under an atmosphere containing 5% CO2. Cells were passaged by trypsinization and split in a 1:5 ratio.
A general note: Formazan colour is commonly taken as a measure of viable cells.

The test system of data set [2] is A2780cis (cisplatin resistant) ovarian cancer cell line. The data set can be described thus: MTT cytotoxicity assay, A2780cis ovarian cancer cells. Type of data set: cell-based, human. Particulars: for resistance factor RF = IC50(A2780cis)/IC50(A2780): ovarian cancer cell lines, FIG. 14B.
Text: as §1
(§9) Cisplatin and phenanthriplatin were used as controls. Cancer and normal cells were treated for 72 h and cell viability was assessed.
as §2, §3, §4, §5, §6, §7, §8

Data set [3] concerns Human Cancer Cells. The conditions noted are these: reportedly, ref. (9); cited from earlier work.
The subject of data set [4] is non-cancerous mesothelial cell line MET-5A. In words: Cytotoxicity screening against normal cells, MET-5A. The conditions noted are these: 72 h, compared with phenanthriplatin. The class given is cell-based, human. The procedure:
as §9, §6, §7
(§10) A2780 and A2780cis cell lines were cultured in RPM11640 with L-glutamine supplemented with 10% FBS and 1% PS. SKOV-3, MDA-MB-231, A549, and HEK293 cell line were cultured in DMEM 1 g/L glucose, with L-glutamine & sodium pyruvate supplemented with 10% FBS and 1% PS. […]

Data set [5] concerns non-cancerous kidney cell line HEK293. In words: Cytotoxicity screening against normal cells, HEK293. Type of data set: cell-based, human. The conditions noted are these: 72 h, compared with phenanthriplatin. The procedure: as §9, §6, §7, §10
The mark [6] stands for this setting: Homo sapiens, A2780, preliminary cytotoxicity data.
Where [7] appears, read: Homo sapiens, A2780cis, preliminary cytotoxicity data, MTT, 72 h, read-out: A2780cis IC50.
Where [8] appears, read: preliminary cytotoxicity data, MTT, 72 h, read-out: A2780cis IC50.
Setting [9] is: further screening (FIG. 14A), treated for 72 h, read-out: IC50 in A2780cis cisplatin-resistant ovarian cancer cell line.

Like-named read-outs stand apart in the source and are kept apart here.

A word on the IC50: it is the midpoint of a concentration-inhibition curve. Turning to `Nc1cc(C(F)(F)F)cc2c1ncc1ccccc12` [Complex 2-CF3, 2-trifluoromethyl-4-aminophenanthridine], the values for the IC50 in data set [1] (setting [6]) and in data set [2] (setting [7]) were 19.3 ± 12.1 µM and more than 100 µM, respectively.
For the compound `CC(C)(C)c1cc(N)c2ncc3ccccc3c2c1` [Complex 2-tBu, 2-tert-butyl-4-aminophenanthridine], the half-maximal inhibitory concentration (IC50) in data set [1] (setting [6]) stood at 8.38 ± 2.83 µM; in data set [2] (setting [7]) it was 20.5 ± 6.07 µM.
With `CC(=O)C=C(C)Nc1cc(C(C)(C)C)cc2c1ncc1ccccc12` [Complex L1, 4-(2′-tert-butyl-4-aminophenanthridinyl)-3-penten-2-one], the “in vitro cytotoxic activity in the absence of platinum(II)” value in data set [1] is recorded as “lack of activity”.
For the compound `CC(=O)C=C(C)Nc1cc(C(F)(F)F)cc2c1ncc1ccccc12` [Complex L2, 4-(2′-trifluoromethyl-4′-aminophenanthridinyl)-3-penten-2-one], in data set [1], the “in vitro cytotoxic activity in the absence of platinum(II)” value is on record as “lack of activity”. For the same compound, the half-inhibitory concentration (IC50) in data set [1] (preliminary cytotoxicity data) was 7.22 ± 2.07 µM; in data set [2] (setting [8]), 20.1 ± 7.17 µM.
Take `N.N.[Cl][Pt][Cl]` [cisplatin, cis-diaminedichloroplatinum(II), reference compound]: the IC50 in data set [1] (preliminary cytotoxicity data) was 0.375 ± 0.217 µM; in data set [2] (setting [9]), 32.9 ± 8.82 µM; in data set [2] (setting [8]) it was 7.76 ± 0.497 µM. In data set [2], the “resistance factor RF = IC50(A2780cis)/IC50(A2780)” value is given as 23.
As to `N.N.O=[N+]([O-])[O-].[Cl][Pt+].c1ccc2c(c1)cnc1ccccc12` [phenanthriplatin, [c/s-R(NH3)2(phenanthridine)Cl][NO3], reference compound], the “resistance factor RF = IC50(A2780cis)/IC50(A2780)” value in data set [2] was determined as 2.7.
In the case of `N.N.O=[N+]([O-])[O-].[Cl][Pt+].c1ccncc1` [pyriplatin, [c/s-R(NH3)2(pyridine)Cl][NO3]], the “potency relative to cisplatin or oxaliplatin” value in data set [3] is given as “ten-fold less potent”.
For “[Pt(CF3-phenanthridinenacac)Cl] [Complex 2]”, the figures for the IC50 in data set [1] (preliminary cytotoxicity data), in data set [2] (setting [9]) and in data set [2] (setting [8]) were 0.341 ± 0.112 µM, 0.55 ± 0.22 µM and 0.955 ± 0.106 µM, respectively. The “IC50 times lower than that of cisplatin” value in data set [2] (A2780cis, 72 h) was determined as 58 times. For the same compound, in data set [2], the “resistance factor RF = IC50(A2780cis)/IC50(A2780)” value came out at 1.1. Moreover, the “toxicity against normal cells (MET-5A)” value in data set [4] is given as “less toxic than phenanthriplatin”. In addition, in data set [5], the “toxicity against normal cells (HEK293)” value was “less toxic than phenanthriplatin”.
As to “[Pt(tBu-phenanthridine-nacac)Cl] [Complex 1]”, the IC50 turned out to be 2.81 ± 0.168 µM in data set [1] (preliminary cytotoxicity data) and 4.57 ± 1.41 µM in data set [2] (setting [8]).

These data come from US11304958B2, “Multidentate phenanthridine-containing ligand frameworks and their planar monofunctional platinum complexes for cancer treatment” (UNIVERSITY OF MANITOBA, priority 2018, dated 2022).
